Results as given in patent publication US20240059729A1, “MULTIFUNCTIONAL CYCLIC DINUCLEOTIDE AND USE THEREOF” (TYLIGAND BIOSCIENCE (SHANGHAI) LIMITED, priority 2020, published 2024).
pIC50: −log10 of the molar value. Where a name gives a salt, the structure may show the parent alone.

Columns and labels:
[1] = system: CT26 cells; assay: Anti-tumor activity in transplantation tumor model of CT26 nude mouse; assay type: in vivo, BALB/c nude mice; settings: for Tumor growth inhibition rate in T cell immunodeficient nude mice: Day 9 post-dosing, 50 μg/mouse (2.5 mg/kg) intratumorally, Day 0 and Day 4; for Tumor growth inhibition in immuno-competent mice versus nude mice (in words): FIG. 2D
Protocol: BALB/c nude mice of 6-8 weeks (purchased from Shanghai Ling Chang Biotech Co., Ltd.) were inoculated with 5×10^5 CT26 cells (supplied by Taicang Zexin Biotechnology Co., Ltd., ATCC #CRL-2638) subcutaneously on the right back dorsal, respectively, and the inoculation volume was 0.1 mL. When tumors grew to an average volume of 100 mm^3, they were randomized according to tumor size and mouse body weight and dosed. The day of the first dose was Day 0. Two doses were administered on Day 0 and Day 4, with 50 μg of compound/mouse (i.e., 2.5 mg/kg) injected intratumorally right side, with the same volume of PBS (Hyclone, Cat #SH30258.01) as a control. The control mice were sacrificed 9 days, the ADU-S100 treated mice were sacrificed 14 days, and Example 10 treated mice were sacrificed 16 days, after dosing, respectively. During the experiment, tumor volumes and the body weights were measured 3 times per week, and the tumor volume was calculated as V=D×d×d/2 (Ibid).

[2] = system: CT26 cells; assay: Inhibition of proliferation of CT26 cells (CellTiter-Glo); assay type: cell-based, mouse; settings: for pIC50: 120 hours, CellTiter-Glo
Protocol: CT26 cell is a mouse colorectal cancer cell line. This assay used the CellTiter-Glo Luminescence Cell Vitality Assay kit from Promega to evaluate the inhibitory activity of the compounds on the proliferation of CT26 cells.
In thawing the CT26 cells (ATCC #CRL-2638), a cell freezing tube was quickly shaken in a water bath at 37° C. to thaw the cells within 1 min. The thawed cell suspension was taken and evenly mixed with DMEM medium (GE, Cat #SH30243.01) containing 10% FBS (GIBCO, Cat #10099-141), centrifuged for 5 min at 1000 rpm, and the supernatant was discarded. The cell pellet was resuspended in 5 mL of the complete medium (DMEM medium containing 10% FBS), placed into a cell culture flask with a bottom area of 25 cm^2, and incubated in a cell incubator at 37° C., 5% CO2 and 95% humidity. When the cell confluence reached 70%˜80%, the cells were passaged. All the cells in the culture flask were transferred to a 15 mL centrifuge tube, centrifuged for 5 min at 1000 rpm, and the supernatant was discarded. 5 mL of fresh complete medium was added to re-suspend the cell pellet, 1 mL of which was taken to place in a cell culture flask with a bottom area of 25 cm^2, supplemented with 4 mL of fresh complete medium for further incubation. When the cell confluence reached 70%-80% again, plating was conducted following the procedure of cell passage, retaining 1/5 cell suspension for further inculation and remaining 4/5 of the cell suspension in a 15 mL centrifuge tube.
The cell suspension was centrifuged to discard the old culture medium, washed once using DMEM medium (serum-free), and centrifuged to remove the supernatant. The cells were then re-suspended in DMEM medium (serum-free). Cell viability was then detected by Trypan blue exclusion test and to be used for plating when the cell viability was confirmed to be more than 95%. A cell suspension with a density of 1.1×10^4 viable cells/mL was prepared using DMEM medium (serum-free), and 90 μL of the cell suspension was added to a 96-well 96-well transparent flat-bottomed black-walled cell culture plate (Corning, Cat #3603) so that the cell density in the plate was 1000 viable cells/well. A control group containing no cells, no compound, and complete medium only (i.e., a culture medium control), and a control group containing no compound but cells (i.e., a cell control) were set. The cell plates were placed in a cell incubator overnight.
A 10 mM stock solution of the compounds in DMSO was first serially diluted at 3.16-fold with DMSO (Sigma, Cat #D2650) to the 9th concentration, and the 10th concentration was set as DMSO control (compound-free). Then, the DMSO solutions containing different concentrations of the compounds were diluted at 10-fold with PBS (Solarbio, Cat #P1020) so that the DMSO content in each compound solution of various concentrations was 10%. Finally, 10 μL of each of such solutions was added into corresponding cell culture plate to provide an initial compound concentration of 100 μM, with the dilution fold of adjacent concentrations being 3.16 and the DMSO content in the cell culture plate being 1%. The cell plate was placed in a cell incubator for further 120 hours.
After 120 hours, the CellTiter-Glo reagent (Promega, Cat #G7572) was thawed and the plates were equilibrated at room temperature for 30 min. 100 uL of CellTiter-Glo was added to each well of the plate, and the cells were lysed thoroughly by shaking on an orbital shaker for 5 min. The plates were placed at room temperature for 20 min to stabilize the luminescence signal, and the luminescence value of each well was scanned at full wavelength with a multifunctional microplate reader (Molecular Devices, Spectramax M3). […]

SMILES	Tumor growth inhibition rate in T cell immunodeficient nude mice [1] [%]	Tumor growth inhibition in immuno-competent mice versus nude mice (in words) [1]	Inhibitory potency on in vitro growth of CT26 tumor cells (in words) [2]	pIC50 [2]	pIC50 ([2]; Mus musculus)
Nc1ncnc2c1ncn2[C@@H]1O[C@@H]2COP(=O)([S-])O[C@@H]3[C@H](O)[C@@H](COP([O-])(=S)O[C@H]2[C@H]1O)O[C@H]3n1cnc2c(N)ncnc21.[Na+].[Na+] (stereo partly drawn) [ADU-S100, reference compound]	61.4	better tumor growth inhibition in immuno-competent mice than in nude mice	no significant tumor cell inhibitory potency	< 5.00	–
Nc1nc2c(ncn2[C@@H]2O[C@@H]3CO[P@@](=O)(S)OC4C(F)[C@H](n5cnc6c(N)nc(Cl)nc65)O[C@@H]4CO[P@@](=O)(S)OC2C3O)c(=O)[nH]1 (stereo partly drawn) [Example 10, (2′,3′)-cyclo-(Rp,Rp)-[2′-O-phosphorothioate-diester-guanosine]-[3′-O-phosphorothioate-diester-2-chloro-2′-deoxy-2′-fluoro-beta-adenosine] diammonium salt]	94.4	better tumor growth inhibition in immuno-competent mice than in nude mice	particularly significant inhibitory potency	–	> 6.00
Nc1nc2c(ncn2[C@@H]2O[C@@H]3CO[P@@](=O)(S)OC4C(F)[C@H](n5cnc6c(N)nc(Cl)nc65)O[C@@H]4CO[P@@](=O)(S)OC3C2O)c(=O)[nH]1 (stereo partly drawn) [Example 17, diammonium salt]	–	–	–	–	5.00 to 6.00
